How the values were obtained:
Type in all cases: in vivo
[1] = tested on: Echinochloa crus-galli var. crus-galli; assay: Test Example 3: herbicidal effect by foliage application, Wagner pot (symbol H); conditions: application herbicide amount 320 g/ha
Procedure, shortened: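 Steps: fill pot with alluvial soil; add water to 0.1–0.5 cm depth; sow weed and rice seed; grow 14 days at 25–30 °C; spray diluted emulsion over the leaves; rate effect after 3 weeks.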

beet = assay: Test Example 5: effect on crop by foliage application, plastic box (symbol f); conditions: 320 g/ha, 3 weeks after application
Procedure, shortened: (§1)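 In a plastic box 7 cm deep filled with sterilized diluvial soil, seeds of crops and weeds such as Digitaria ciliaris, Avena fatua and Amaranthus retroflexus are sown in spots and covered with about 1.5 cm of soil before greenhouse growth at 25–30° C.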

Lolium multiflorum Lam. = assay: Test Example 4: herbicidal effect by soil treatment (symbol K)
Procedure, shortened: (§2)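 Seeds were sown in sterilized diluvial soil, covered with about 1.5 cm of soil, and the soil surface was sprayed with a water-diluted emulsion of the compound at a predetermined rate. Plants grew in a greenhouse at 25° C. to 30° C.; effects were scored visually 3 weeks after application.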

Amaranthus retroflexus [2] = assay: Test Example 5: herbicidal effect by foliage application, plastic box (symbol N); conditions: 320 g/ha, 3 weeks after application
Procedure, shortened: (§3)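 Sowing in sterilized diluvial soil, 14 days' greenhouse growth at 25° C. to 30° C., then uniform small-sprayer foliar application of aqueous emulsion dilution; plants scored three weeks afterwards.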

Amaranthus retroflexus [3] = assay: Test Example 4: herbicidal effect by soil treatment (symbol N)
Procedure, shortened: as §2

wheat [4] = assay: Test Example 5: effect on crop by foliage application, plastic box (symbol e); conditions: 320 g/ha, 3 weeks after application
Procedure, shortened: as §1

wheat [5] = assay: Test Example 4: effect on crop by soil treatment (symbol e); conditions: for e: wheat, effect on crop grade: application herbicide amount 320 g/ha
Procedure, shortened: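 Crop seeds, among them rice, wheat, beet and rapeseed, were sown in sterilized diluvial soil and covered with about 1.5 cm of soil. Boxes were kept in a greenhouse at 25° C. to 30° C. for plant growth.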

[6] = tested on: Echinochloa oryzacola Vasing.; assay: Test Example 1: herbicidal activity, application before weed generation in submerged conditions (symbol A); conditions: application herbicide amount 320 g/ha
Procedure, shortened: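 Scores run 0 to 5 by herbicidal ratio, with 5 meaning 90% or more and 0 meaning 5% or lower, read 3 weeks after treatment. Compound was applied as a diluted emulsion to the water surface of submerged alluvial-soil pots on the day weed seeds were sown.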

Stellaria media [7] = assay: Test Example 5: herbicidal effect by foliage application, plastic box (symbol P); conditions: 320 g/ha, 3 weeks after application
Procedure, shortened: as §3

Setaria viridis [8] = assay: Test Example 5: herbicidal effect by foliage application, plastic box (symbol G); conditions: 320 g/ha, 3 weeks after application
Procedure, shortened: as §3

Setaria viridis [9] = assay: Test Example 4: herbicidal effect by soil treatment (symbol G)
Procedure, shortened: as §2

Stellaria media [10] = assay: Test Example 4: herbicidal effect by soil treatment (symbol P)
Procedure, shortened: as §2

transplanted rice plant = assay: Test Example 1: effect on crop, application before weed generation in submerged conditions (symbol a); conditions: application herbicide amount 320 g/ha
Procedure, shortened: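 Alluvial soil pots flooded to 4 cm water, sown with Echinochloa oryzacola, Scirpus juncoides and Monochoria vaginalis, then transplanted with 2.5 leaf stage rice seedlings; pre-emergence application. Greenhouse 25° C. to 30° C.; scored 0–5 by herbicidal ratio 3 weeks after application.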

Avena fatua = assay: Test Example 5: herbicidal effect by foliage application, plastic box (symbol I); conditions: 320 g/ha, 3 weeks after application
Procedure, shortened: as §3

Abutilon theophrasti = assay: Test Example 5: herbicidal effect by foliage application, plastic box (symbol M); conditions: 320 g/ha, 3 weeks after application
Procedure, shortened: as §3

[11] = application herbicide amount 320 g/ha

SMILES	herbicidal effect on H (Echinochloa crus-galli var. crus-galli), grade 0-5 [1]	f: beet, effect on crop grade (beet)	K: Lolium multiflorum Lam., herbicidal effect grade (Lolium multiflorum Lam.; [11])	N: Amaranthus retroflexus, herbicidal effect grade (Amaranthus retroflexus [2])	N: Amaranthus retroflexus, herbicidal effect grade (Amaranthus retroflexus [3]; [11])	e: wheat, effect on crop grade (wheat [4])	e: wheat, effect on crop grade (wheat [5])	Herbicidal effect grade, A: Echinochloa oryzacola Vasing. [6]	P: Stellaria media, herbicidal effect grade (Stellaria media [7])	G: Setaria viridis, herbicidal effect grade (Setaria viridis [8])	G: Setaria viridis, herbicidal effect grade (Setaria viridis [9]; [11])	P: Stellaria media, herbicidal effect grade (Stellaria media [10]; [11])	Effect grade on crop, a: transplanted rice plant (transplanted rice plant)	I: Avena fatua, herbicidal effect grade (Avena fatua)	M: Abutilon theophrasti, herbicidal effect grade (Abutilon theophrasti)	further results
CON=C(C)CC1CC(O)=C(c2c(C)cc(-c3cccc(Cl)c3)cc2C)C1=O (mixture of isomers) [6-034]	5 (Herbicidal ratio of 90% or more (almost completely withered))	0 (Herbicidal ratio of 5% or lower (almost no effect))	5 (Herbicidal ratio of 90% or more (almost completely withered))	3 (Herbicidal ratio of 40% or higher and lower than 70%)	2 (Herbicidal ratio of 20% or higher and lower than 40%)	0 (Herbicidal ratio of 5% or lower (almost no effect))	0 (Herbicidal ratio of 5% or lower (almost no effect))	5 (Herbicidal ratio of 90% or more (almost completely withered))	3 (Herbicidal ratio of 40% or higher and lower than 70%)	5 (Herbicidal ratio of 90% or more (almost completely withered))	5 (Herbicidal ratio of 90% or more (almost completely withered))	0 (Herbicidal ratio of 5% or lower (almost no effect))	5 (Herbicidal ratio of 90% or more (almost completely withered))	5 (Herbicidal ratio of 90% or more (almost completely withered))	3 (Herbicidal ratio of 40% or higher and lower than 70%)	
CON=C(C)CC1CC(O)=C(c2c(C)cc(-c3ccccc3)cc2C)C1=O (stereo not drawn) [6-015]	5 (Herbicidal ratio of 90% or more (almost completely withered))	0 (Herbicidal ratio of 5% or lower (almost no effect))	5 (Herbicidal ratio of 90% or more (almost completely withered))	2 (Herbicidal ratio of 20% or higher and lower than 40%)	5 (Herbicidal ratio of 90% or more (almost completely withered))	0 (Herbicidal ratio of 5% or lower (almost no effect))	0 (Herbicidal ratio of 5% or lower (almost no effect))	5 (Herbicidal ratio of 90% or more (almost completely withered))	3 (Herbicidal ratio of 40% or higher and lower than 70%)	5 (Herbicidal ratio of 90% or more (almost completely withered))	5 (Herbicidal ratio of 90% or more (almost completely withered))	2 (Herbicidal ratio of 20% or higher and lower than 40%)	5 (Herbicidal ratio of 90% or more (almost completely withered))	4 (Herbicidal ratio of 70% or higher and lower than 90%)	2 (Herbicidal ratio of 20% or higher and lower than 40%)	
CCOC(=O)C(C(=O)C(F)(F)F)C1CC(O)=C(c2c(C)cc(C)cc2C)C1=O (stereo not drawn) [2-010]	3 (Herbicidal ratio of 40% or higher and lower than 70%)	0 (Herbicidal ratio of 5% or lower (almost no effect))	0 (Herbicidal ratio of 5% or lower (almost no effect))	0 (Herbicidal ratio of 5% or lower (almost no effect))	0 (Herbicidal ratio of 5% or lower (almost no effect))	0 (Herbicidal ratio of 5% or lower (almost no effect))	0 (Herbicidal ratio of 5% or lower (almost no effect))	0 (Herbicidal ratio of 5% or lower (almost no effect))	0 (Herbicidal ratio of 5% or lower (almost no effect))	0 (Herbicidal ratio of 5% or lower (almost no effect))	0 (Herbicidal ratio of 5% or lower (almost no effect))	0 (Herbicidal ratio of 5% or lower (almost no effect))	0 (Herbicidal ratio of 5% or lower (almost no effect))	0 (Herbicidal ratio of 5% or lower (almost no effect))	0 (Herbicidal ratio of 5% or lower (almost no effect))	
CON=C(C)CC1CC(OS(=O)(=O)C2CC2)=C(c2c(C)cc(C)cc2C)C1=O (stereo not drawn) [1-143]	4 (Herbicidal ratio of 70% or higher and lower than 90%)							4 (Herbicidal ratio of 70% or higher and lower than 90%)					5 (Herbicidal ratio of 90% or more (almost completely withered))			f: beet, effect on crop (criteria 0-5) (beet): 0 (Herbicidal ratio of 5% or lower (almost no effect)); K: Lolium multiflorum Lam., herbicidal effect grade (Lolium multiflorum Lam.; 320 g/ha): 4 (Herbicidal ratio of 70% or higher and lower than 90%); N: Amaranthus retroflexus, herbicidal effect (criteria 0-5) (Amaranthus retroflexus [2]): 1 (Herbicidal ratio of 5% or higher and lower than 20%); N: Amaranthus retroflexus, herbicidal effect grade (Amaranthus retroflexus [3]; 320 g/ha): 0 (Herbicidal ratio of 5% or lower (almost no effect)); e: wheat, effect on crop (criteria 0-5) (wheat [4]): 3 (Herbicidal ratio of 40% or higher and lower than 70%); e: wheat, effect grade on crop (wheat [5]; 320 g/ha): 2 (Herbicidal ratio of 20% or higher and lower than 40%); P: Stellaria media, herbicidal effect (criteria 0-5) (Stellaria media [7]): 0 (Herbicidal ratio of 5% or lower (almost no effect)); G: Setaria viridis, herbicidal effect (criteria 0-5) (Setaria viridis [8]): 5 (Herbicidal ratio of 90% or more (almost completely withered)); G: Setaria viridis, herbicidal effect grade (Setaria viridis [9]; 320 g/ha): 1 (Herbicidal ratio of 5% or higher and lower than 20%); P: Stellaria media, herbicidal effect grade (Stellaria media [10]; 320 g/ha): 0 (Herbicidal ratio of 5% or lower (almost no effect)); I: Avena fatua, herbicidal effect (criteria 0-5) (Avena fatua): 5 (Herbicidal ratio of 90% or more (almost completely withered)); M: Abutilon theophrasti, herbicidal effect (criteria 0-5) (Abutilon theophrasti): 1 (Herbicidal ratio of 5% or higher and lower than 20%)
CON=CC1CC(O)=C(c2c(C)cc(C)cc2C)C1=O (mixture of isomers) [3-001]	3 (Herbicidal ratio of 40% or higher and lower than 70%)	0 (Herbicidal ratio of 5% or lower (almost no effect))	4 (Herbicidal ratio of 70% or higher and lower than 90%)	0 (Herbicidal ratio of 5% or lower (almost no effect))	0 (Herbicidal ratio of 5% or lower (almost no effect))	0 (Herbicidal ratio of 5% or lower (almost no effect))	0 (Herbicidal ratio of 5% or lower (almost no effect))	0 (Herbicidal ratio of 5% or lower (almost no effect))	0 (Herbicidal ratio of 5% or lower (almost no effect))	3 (Herbicidal ratio of 40% or higher and lower than 70%)	0 (Herbicidal ratio of 5% or lower (almost no effect))	0 (Herbicidal ratio of 5% or lower (almost no effect))	0 (Herbicidal ratio of 5% or lower (almost no effect))	2 (Herbicidal ratio of 20% or higher and lower than 40%)	0 (Herbicidal ratio of 5% or lower (almost no effect))	

— patent publication US11000033B2, “Ketone or oxime compound, and herbicide” (NISSAN CHEMICAL CORPORATION, priority 2014, dated 2021)
